Source: patent US9498483B2, “2,3,5-trisubstituted thiophene compounds and uses thereof” (priority 2010, dated 2016)
pIC50: −log10 of the molar value.

Tests used:
[1] = system: HCV replicon I389luc-ubi-neo/NS3-3′/ET in ET (Huh-lucubineo-ET) cells; experiment: Replicon assay (Biological Example 2), luciferase readout; assay type: cell-based; conditions: Hepatitis C virus
Summary of the method: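 EC50 values come from Hill fits of % inhibition of replicon-driven firefly luciferase, relative to no-compound wells. Compounds were serially diluted (10 points, 3-fold, 0.1 nM–50 μM final, 0.5% DMSO) onto ET replicon cells and read after 48 h.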

HCV polymerase = target: T1, HCV polymerase (Hepatitis C virus genotype 1b, UniProt Q9WMX2); experiment: Polymerase assay of Biological Example 1 (IC50 values of Table 3); assay type: biochemical; conditions: IC50 values of Table 3, polymerase assay of Biological Example 1; read-out: NS5B-enzyme3
T1 construct: (His)6 (C); made in house; host or cells: XL-1 cells (E. coli, by own knowledge)

[2] = ET cells, luciferase activity 48 hours after compound

Row | Structure (SMILES) | pIC50 [1, 2] | pIC50 (HCV polymerase) | pIC50 ([1]; between 100 nM and 5.0 uM)
1 | Cc1nc(S(=O)(=O)N2CC(=O)N(c3cc(C#CC(C)(C)C)sc3C(=O)O)[C@H](C3CCCCC3)C2)cn1C [Compound 248, 3-[(R)-2-Cyclohexyl-4-(1,2-dimethyl-1H-imidazole-4-sulfonyl)-6-oxopiperazin-1-yl]-5-(3,3-dimethyl-but-1-ynyl)-thiophene-2-carboxylic acid] | ≥ 7.00 | 8.70 | 
2 | O=C(O)c1sc(-c2ccc(F)cc2)cc1N1C(=O)CCCC1C1CCCCC1 (centres unmarked) [Compound 70, 3-(2-Cyclohexyl-6-oxo-piperidin-1-yl)-5-(4-fluoro-phenyl)-thiophene-2-carboxylic acid] |  | 7.17 | 5.30 to 7.00
3 | O=C(O)c1sc(-c2ccc(F)cc2)cc1N1C(=O)CN(S(=O)(=O)c2ccc(N3CC[C@H](F)C3)nc2)C[C@H]1C1CCCCC1 [Compound 287, 3-{(R)-2-Cyclohexyl-4-[6-((S)-3-fluoro-pyrrolidin-1-yl)-pyridine-3-sulfonyl]-6-oxo-piperazin-1-yl}-5-(4-fluoro-phenyl)-thiophene-2-carboxylic acid] | ≥ 7.00 | 9.00 | 
4 | Cc1noc(C)c1S(=O)(=O)N1CC(=O)N(c2cc(-c3ccccc3)sc2C(=O)O)C(C2CCCCC2)C1 (centres unmarked) [Compound 32, 3-[2-Cyclohexyl-4-(3,5-dimethyl-isoxazole-4-sulfonyl)-6-oxo-piperazin-1-yl]-5-phenyl-thiophene-2-carboxylic acid] | ≤ 5.30 | 6.62 | 
5 | COc1cccc(S(=O)(=O)N2CC(=O)N(c3cc(-c4ccccc4)sc3C(=O)O)[C@H](C3CCCCC3)C2)c1 [Compound 107, 3-[(R)-2-Cyclohexyl-4-(3-methoxy-benzenesulfonyl)-6-oxo-piperazin-1-yl]-5-phenyl-thiophene-2-carboxylic acid] |  | > 9.00 | 5.30 to 7.00
6 | O=C(O)c1sc(-c2ccccc2)cc1N1C(=O)CN(S(=O)(=O)CCc2ccccc2)CC1C1CCCCC1 (centres unmarked) [Compound 39, 3-[2-Cyclohexyl-6-oxo-4-(2-phenyl-ethanesulfonyl)-piperazin-1-yl]-5-phenyl-thiophene-2-carboxylic acid] |  | 7.29 | 5.30 to 7.00
7 | CC(C)(C)C#Cc1cc(N2C(=O)CN(S(=O)(=O)c3cn[nH]c3)C[C@H]2C2CCCCC2)c(C(=O)O)s1 [Compound 241, 3-[(R)-2-Cyclohexyl-6-oxo-4-(1H-pyrazole-4-sulfonyl)-piperazin-1-yl]-5-(3,3-dimethyl-but-1-ynyl)-thiophene-2-carboxylic acid] | ≥ 7.00 | 9.00 | 
8 | O=C(O)c1sc(-c2ccccc2)cc1N1C(=O)CN(S(=O)(=O)c2ccc(NC3CCOCC3)nc2)C[C@H]1C1CCCCC1 [Compound 194, 3-{(R)-2-Cyclohexyl-6-oxo-4-[6-(tetrahydro-pyran-4-ylamino)-pyridine-3-sulfonyl]-piperazin-1-yl}-5-phenyl-thiophene-2-carboxylic acid] | ≥ 7.00 | 8.70 | 
9 | Cc1ccc(-c2cc(N3C(=O)CN(S(=O)(=O)c4cnc(C)c(C)c4)C[C@H]3C3CCCCC3)c(C(=O)O)s2)cc1 [Compound 305, 3-[(R)-2-Cyclohexyl-4-(5,6-dimethyl-pyridine-3-sulfonyl)-6-oxo-piperazin-1-yl]-5-p-tolyl-thiophene-2-carboxylic acid] | ≥ 7.00 | 8.40 | 
10 | C[C@H](O)C[C@H]1OC[C@@H](C2CCCCC2)N(c2cc(C#CC(C)(C)C)sc2C(=O)O)C1=O [Compound 337, 3-[(2R,5R)-5-Cyclohexyl-2-((S)-2-hydroxy-propyl)-3-oxo-morpholin-4-yl]-5-(3,3-dimethyl-but-1-ynyl)-thiophene-2-carboxylic acid] | ≥ 7.00 | 8.70 | 
11 | CCc1ccc(S(=O)(=O)N2CC(=O)N(c3cc(-c4ccccc4)sc3C(=O)O)C(C3CCCCC3)C2)cc1 (centres unmarked) [Compound 56, 3-[2-Cyclohexyl-4-(4-ethyl-benzenesulfonyl)-6-oxo-piperazin-1-yl]-5-phenyl-thiophene-2-carboxylic acid] |  | 8.15 | 5.30 to 7.00
12 | CC1(C)OC[C@@H](C2CCCCC2)N(c2cc(-c3ccc(Cl)cc3)sc2C(=O)O)C1=O [Compound 315, 5-(4-Chloro-phenyl)-3-((R)-5-cyclohexyl-2,2-dimethyl-3-oxo-morpholin-4-yl)-thiophene-2-carboxylic acid] | ≥ 7.00 | 8.22 | 
13 | N[C@H]1CCCN(c2ccc(S(=O)(=O)N3CC(=O)N(c4cc(-c5ccccc5)sc4C(=O)O)[C@H](C4CCCCC4)C3)cn2)C1 [Compound 142, 3-[(R)-4-((S)-3-Amino-3,4,5,6-tetrahydro-2H-[1,2′]bipyridinyl-5′-sulfonyl)-2-cyclohexyl-6-oxo-piperazin-1-yl]-5-phenyl-thiophene-2-carboxylic acid] |  | 8.70 | 5.30 to 7.00
14 | CC(C)(C)C#Cc1cc(N2C(=O)[C@@H](CCO)OC[C@H]2C2CCCCC2)c(C(=O)O)s1 [Compound 8, 3-[(2R,5R)-5-Cyclohexyl-2-(2-hydroxy-ethyl)-3-oxo-morpholin-4-yl]-5-(3,3-dimethyl-but-1-ynyl)-thiophene-2-carboxylic acid] | ≥ 7.00 | 9.00 | 
15 | Cn1ccc2cc(S(=O)(=O)N3CC(=O)N(c4cc(-c5ccccc5)sc4C(=O)O)C(C4CCCCC4)C3)ccc21 (centres unmarked) [Compound 61, 3-[2-Cyclohexyl-4-(1-methyl-1H-indole-5-sulfonyl)-6-oxo-piperazin-1-yl]-5-phenyl-thiophene-2-carboxylic acid] |  | 8.52 | 5.30 to 7.00
16 | C[C@H]1OCC(=O)N(c2cc(C#CC(C)(C)C)sc2C(=O)O)[C@@H]1C1CCCCC1 [Compound 291, 3-((2R,3R)-3-Cyclohexyl-2-methyl-5-oxo-morpholin-4-yl)-5-(3,3-dimethyl-but-1-ynyl)-thiophene-2-carboxylic acid] | ≥ 7.00 | 8.10 | 
17 | O=C(O)c1sc(-c2ccccc2)cc1N1C(=O)CN(S(=O)(=O)c2ccc(N3CCC(F)(F)CC3)nc2)CC1C1CCCCC1 (centres unmarked) [Compound 95, 3-[2-Cyclohexyl-4-(4,4-difluoro-3,4,5,6-tetrahydro-2H-[1,2′]bipyridinyl-5′-sulfonyl)-6-oxo-piperazin-1-yl]-5-phenyl-thiophene-2-carboxylic acid] | ≥ 7.00 | 8.30 | 
18 | O=C(O)c1sc(-c2ccccc2)cc1N1C(=O)CN(S(=O)(=O)c2ccc(N3CC4CC3CO4)nc2)C[C@H]1C1CCCCC1 (stereo partly drawn) [Compound 217, 3-{(R)-2-Cyclohexyl-4-[6-(2-oxa-5-aza-bicyclo[2.2.1]hept-5-yl)-pyridine-3-sulfonyl]-6-oxo-piperazin-1-yl}-5-phenyl-thiophene-2-carboxylic acid] | ≥ 7.00 | 9.00 | 
19 | Cc1ccc(-c2cc(N3C(=O)CCCC3C3CCCCC3)c(C(=O)O)s2)cc1 (centres unmarked) [Compound 71, 3-(2-Cyclohexyl-6-oxo-piperidin-1-yl)-5-p-tolyl-thiophene-2-carboxylic acid] |  | 7.28 | 5.30 to 7.00
20 | NCCS(=O)(=O)N1CC(=O)N(c2cc(-c3ccccc3)sc2C(=O)O)C(C2CCCCC2)C1 (centres unmarked) [Compound 47, 3-[4-(2-Amino-ethanesulfonyl)-2-cyclohexyl-6-oxo-piperazin-1-yl]-5-phenyl-thiophene-2-carboxylic acid] | ≤ 5.30 | 7.06 | 5.30 to 7.00
